Assay results reported in patent US11279733B2, “Peptide antibiotics” (priority 2017, dated 2022).
≈ marks a conversion by molar mass, not a printed value. Where two headings read alike, the source gives them in different places. Positions of bridges follow the written chain, without caps; N, C: chain ends. Non-standard residues stand in square brackets, D forms with d. Residues, ends and D or L forms follow the SMILES beside them. *: point of attachment. Decanoyl(3R-OH) = CCCCCCC[C@@H](O)CC(=O)*; dBip = N[C@H](Cc1ccc(-c2ccccc2)cc1)C(=O)O; dDab = NCC[C@@H](N)C(=O)O; Octanoyl = CCCCCCCC(=O)*; Dab = NCC[C@H](N)C(=O)O

What was measured:
[1] = test system: A. baumannii ATCC 19606; conditions: ATCC 19606
Method in brief: (§1)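 Mid-log cultures grown in Mueller Hinton broth at 37° C were tested by 2-fold broth microdilution at 5×10^5 CFU/mL final. Compounds were dissolved in water and tested over a final range of 32 to 0.015 μg/mL.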

[2] = test system: A. baumannii GN_093 PmxR; conditions: GN 093 PmxR
Method in brief: as §1

[3] = test system: E. coli ATCC 25922; conditions: ATCC 25922
Method in brief: as §1

[4] = test system: K. pneumoniae ATCC 13883; conditions: ATCC 13883
Method in brief: as §1

[5] = test system: K. pneumoniae ATCC 700603, MDR; conditions: ATCC 700603
Method in brief: as §1

[6] = test system: K. pneumoniae ATCC BAA-2146, NDM-1 pos; conditions: ATCC BAA-2146
Method in brief: as §1

[7] = test system: K. pneumoniae GN_102 PmxR; conditions: GN 102 PmxR
Method in brief: as §1

[8] = test system: K. pneumoniae GN_106, PmxR; conditions: GN 106, PmxR
Method in brief: as §1

[9] = test system: P. aeruginosa ATCC 27853; conditions: ATCC 27853
Method in brief: as §1

[10] = test system: P. aeruginosa GN_043, PmxR
Method in brief: as §1

[11] = test system: P. aeruginosa GN_105, PmxR; conditions: GN 105, PmxR
Method in brief: as §1

[12] = test system: S. aureus ATCC 25923, MSSA; conditions: ATCC 25923
Method in brief: as §1

[13] = in vitro; conditions: human
Method in brief: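 HK2 cells were seeded at 2000 per well in DMEM/F12 with 10% FBS and left to attach for 24 h at 37 °C, 5% CO2. They were then exposed for 24 h to 3-fold peptide dilutions starting from 600 μM solutions in quadruplicate. LDH release was read at 450 nm, and CC50 was fitted from dose-response curves.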

Row | SMILES | CC50 at 24 h [13] | MIC A. baumannii ATCC 19606 [1] | MIC A. baumannii GN_093 PmxR [2] | MIC E. coli ATCC 25922 [3] | MIC K. pneumoniae ATCC 13883 [4] | MIC K. pneumoniae ATCC 700603, MDR [5] | MIC K. pneumoniae ATCC BAA-2146, NDM-1 pos [6] | MIC K. pneumoniae GN_102 PmxR [7] | MIC K. pneumoniae GN_106, PmxR [8] | MIC P. aeruginosa ATCC 27853 [9] | MIC P. aeruginosa GN_043, PmxR ([10]; P. aeruginosa GN_043, PmxR) | MIC P. aeruginosa GN_105, PmxR [11] | MIC S. aureus ATCC 25923, MSSA [12] | further results
1 | CCCCCCC[C@@H](O)CC(=O)N[C@H](CCN)C(=O)N[C@H]1CCNC(=O)[C@H](CC(C)C)NC(=O)[C@H](CCN)NC(=O)[C@H](CCN)NC(=O)[C@H](CC(C)C)NC(=O)[C@@H](Cc2ccccc2)NC(=O)[C@H](C)NC1=O [compound 4948, 3(R)OH-nC9CO-D-Dab-cyc[L-Dab-L-Ala-D-Phe-L-Leu-L-Dab-L-Dab-L-Leu]] ({Decanoyl(3R-OH)}-[dDab][Dab]A[dF]L[Dab][Dab]L; lactam 2-C) | 112 µM | – | – | – | – | – | – | – | – | – | – | – | – | MIC, A. baumannii ATCC 19606 [1]: >32 µg/mL; MIC, A. baumannii Cl Ptyela 10073 4512:2, PmxR [2]: >32 µg/mL; MIC, E. coli ATCC 25922 [3]: 16 µg/mL (≈ 15.8 µM); MIC, K. pneumoniae ATCC 13883 [4]: 16 µg/mL (≈ 15.8 µM); MIC, K. pneumoniae ATCC 700603, MDR [5]: 16 µg/mL (≈ 15.8 µM); MIC, K. pneumoniae ATCC BAA-2146, NDM-1 pos [6]: 8 µg/mL (≈ 7.88 µM); MIC, K. pneumoniae Cl Koprana 10065 0661:1, PmxR [7]: 8 µg/mL (≈ 7.88 µM); MIC, K. pneumoniae Cl 138-16347-20362, PmxR [8]: 16 µg/mL (≈ 15.8 µM); MIC, P. aeruginosa ATCC 27853 [9]: 1 µg/mL (≈ 0.985 µM); MIC, P. aeruginosa FADDI-PA070, PmxR ([10]; Table 5, polymyxin-resistant): 1 µg/mL (≈ 0.985 µM); MIC, P. aeruginosa PA9704, PmxR [11]: >32 µg/mL; MIC, S. Aureus ATCC 25923, MSSA [12]: >32 µg/mL
2 | CCCCCCCC(=O)N[C@H](CCN)C(=O)N[C@H]1CCNC(=O)[C@H]([C@@H](C)O)NC(=O)[C@H](CCN)NC(=O)[C@H](CCN)NC(=O)[C@H](CC(C)C)NC(=O)[C@@H](Cc2ccccc2)NC(=O)[C@H](CCN)NC1=O [compound 6399, nC7CO-D-Dab-cyc[L-Dab-L-Dab-D-Phe-L-Leu-L-Dab-L-Dab-L-Thr]] (Octanoyl-[dDab][Dab][Dab][dF]L[Dab][Dab]T; lactam 2-C) | > 300 µM | >32 µg/mL | >32 µg/mL | 8 µg/mL (≈ 8.1 µM) | >32 µg/mL | 16 µg/mL (≈ 16.2 µM) | >32 µg/mL | >32 µg/mL | >32 µg/mL | 1 µg/mL (≈ 1.01 µM) | 8 µg/mL (≈ 8.1 µM) | >32 µg/mL | >32 µg/mL | –
3 | CCCCCCC[C@@H](O)CC(=O)N[C@H](CCN)C(=O)N[C@H]1CCNC(=O)[C@H]([C@@H](C)O)NC(=O)[C@H](CCN)NC(=O)[C@H](CCN)NC(=O)[C@H](CC(C)C)NC(=O)[C@@H](Cc2ccc(-c3ccccc3)cc2)NC(=O)[C@H](CCN)NC1=O [compound 5608, 3(R)OH-nC9CO-D-Dab-cyc[L-Dab-L-Dab-D-Bip-L-Leu-L-Dab-L-Dab-L-Thr]] ({Decanoyl(3R-OH)}-[dDab][Dab][Dab][dBip]L[Dab][Dab]T; lactam 2-C) | 37 µM | 4 µg/mL (≈ 3.61 µM) | 16 µg/mL (≈ 14.4 µM) | 2 µg/mL (≈ 1.8 µM) | 2 µg/mL (≈ 1.8 µM) | 2 µg/mL (≈ 1.8 µM) | 2 µg/mL (≈ 1.8 µM) | 4 µg/mL (≈ 3.61 µM) | 8 µg/mL (≈ 7.22 µM) | 2 µg/mL (≈ 1.8 µM) | 1 µg/mL (≈ 0.902 µM) | 2 µg/mL (≈ 1.8 µM) | 4 µg/mL (≈ 3.61 µM) | –
4 | CCCCCCC[C@@H](O)CC(=O)N[C@H](CCN)C(=O)N[C@H]1CCNC(=O)[C@H](Cc2ccc(O)cc2)NC(=O)[C@H](CCN)NC(=O)[C@H](CCN)NC(=O)[C@H](CC(C)C)NC(=O)[C@@H](Cc2ccccc2)NC(=O)[C@H](CCN)NC1=O [compound 6511, 3(R)OH-nC9CO-D-Dab-cyc[L-Dab-L-Dab-D-Phe-L-Leu-L-Dab-L-Dab-L-Tyr]] ({Decanoyl(3R-OH)}-[dDab][Dab][Dab][dF]L[Dab][Dab]Y; lactam 2-C) | 76 µM | 32 µg/mL (≈ 29.2 µM) | 32 µg/mL (≈ 29.2 µM) | 8 µg/mL (≈ 7.31 µM) | 8 µg/mL (≈ 7.31 µM) | 4 µg/mL (≈ 3.66 µM) | 2 µg/mL (≈ 1.83 µM) | 8 µg/mL (≈ 7.31 µM) | 8 µg/mL (≈ 7.31 µM) | 2 µg/mL (≈ 1.83 µM) | – | 4 µg/mL (≈ 3.66 µM) | 32 µg/mL (≈ 29.2 µM) | MIC P. aeruginosa GN_043, PmxR ([10]; polymyxin-resistant): 1 µg/mL (≈ 0.914 µM)
